Assays:
hepatic fibrosis = assay: Hepatic fibrosis mouse model (CCl4); type: in vivo, C57BL/6N mice; conditions: FIG. 9; for serum alanine aminotransferase (ALT) levels / serum aspartate aminotransferase (AST) levels: intraperitoneal (IP) injection twice a week from third week of modelling; for pathology scores: intraperitoneal (IP) injection, liver Masson staining
Experimental: In this test example, the efficacy of the compounds of the present disclosure was tested on hepatic fibrosis in an animal model of hepatic fibrosis. Briefly, C57BL/6N mice, male, 7 to 8 weeks old, 24 to 28 g of body weight, were used. The mouse model of hepatic fibrosis was induced by intraperitoneal injection of CCl4 solution at a dosage of 1 mL/kg, with a dosing frequency of 2 times/week, and a modelling cycle of 6 weeks. Dosing via intraperitoneal injection was started starting from the third week of modelling twice a week. At the end of the test, serum was collected, and liver tissue was taken for Masson staining index assay.

[1] = test system: idiopathic pulmonary fibrosis; assay: Idiopathic pulmonary fibrosis animal model (bleomycin); type: in vivo, SD rats; conditions: intraperitoneal (IP) 5 mg/kg, 3 consecutive weeks, FIG. 6; for pathology scores: H&E and Masson staining; for WBC: alveolar lavage fluid; for HYP: lung tissue
Experimental: In this test example, the efficacy of the compounds of the present disclosure was tested on idiopathic pulmonary fibrosis in an idiopathic pulmonary fibrosis animal model. Briefly, anesthetized 6-week-old SD rats were fixed on a foam board with medical tape. Firstly, the skin on the surface of the trachea was cut with surgical scissors to fully expose the trachea, and a 100-microlitre micro-syringe containing a certain volume of bleomycin (BLM 5 mg/kg) solution drawn based on the body weight of the rat was inserted into the trachea through the oral cavity to administer by slow bolus injection. After administration of the BLM solution, the foam plate was immediately rotated and shaken to distribute the BLM solution as evenly as possible in the lung tissue. Then the skin on the surface of the trachea was sutured with surgical sutures and about 0.5 to 1.0 mL of penicillin solution was dripped onto the epidermis to prevent infection of the surgical wound. After the 7th day of modelling, the compound solution of the present disclosure was administered via intraperitoneal (IP) injection (5 mg/kg) according to the weight of the rat for 3 consecutive weeks. Rats were euthanized by carbon dioxide on Day 28, the lung tissues were removed, the left alveolar lavage fluid was collected for white blood cell (WBC) counting, the right lung tissue portion was used for hydroxyproline (HYP) assay, and the remaining lung tissues were stained for pathology by H&E staining and Masson staining.

platelets = assay: Platelet toxicity test in mice (platelet count); type: in vivo; conditions: mice, 0.5 mg/kg single intraperitoneal injection, blood at 6 hours, FIG. 1
Experimental: In this test example, C57 mice were chosen to detect the effect of the target compounds on platelets.
7 to 8 weeks old […] mice were randomly divided into vehicle group and compound group. The test compound (0.5 mg/kg) or blank vehicle was administrated via single intraperitoneal injection. Blood was collected from the retroorbital venous plexus of the mice at 6 hours, and placed in a blood routine tube containing anticoagulant EDTA-K2. After shaking gently, the blood physiological indicators were measured using a hematology analyzer, with the platelet count as the target parameter for this platelet toxicity test.

[2] = test system: oxygen-induced retinopathy (OIR); assay: Mouse model of oxygen-induced retinopathy (OIR); type: in vivo; conditions: intravitreal (IVT), 1 μL of 200 μM at P12, read at P17, FIG. 3
Experimental: The efficacy of the prodrugs RX001-RX006 as well as RX301 were investigated in a mouse model of oxygen-induced retinopathy (OIR) which to some extent indicates an in vivo model of retinopathy of prematurity (ROP), diabetic retinopathy, and wet age-related macular degeneration.
From postnatal Day 7 (P7) to Day 12 (P12), C57Bl/6 mouse pups and their CD 1 foster mothers were exposed to hyperoxia (75% 02). At P12, the animals were injected intravitreally with 1 μL of the test composition formulated in 1% DMSO, 10% Tween 80, and 20% PEG-400 (200 μM of the compound) and returned to room air until day 17 (P17). On P17, the eyeballs were enucleated, and the retinas were dissected for vascular staining. To determine the area of avascularity or angiogenesis, the retinas were flattened and stained with isolectin B4 (IB4).

CCN1CCN(C(=O)c2nc(N3CCc4cccc(C(=O)Nc5nc6ccccc6s5)c4C3)ccc2-c2cnn(CC34CC5CC(CC(C5)C3)C4)c2C)CC1 [RX001] was tested, and the “serum alanine aminotransferase (ALT) levels” value (hepatic fibrosis) was “statistically significant improvements”, the “serum aspartate aminotransferase (AST) levels” value (hepatic fibrosis) was “statistically significant improvements” and the pathology scores (hepatic fibrosis) was “statistically significant improvements”. The pathology scores [1] was “statistically significant improvements”, the WBC [1] was “statistically significant improvements” and the HYP [1] was “statistically significant improvements”.
Cc1c(-c2ccc(N3CCc4cccc(C(=O)Nc5nc6ccccc6s5)c4C3)nc2C(=O)N2CCC(CCOP(=O)(O)O)CC2)cnn1CC12CC3CC(CC(C3)C1)C2 [RX301] was tested, and the “serum alanine aminotransferase (ALT) levels” value (hepatic fibrosis) was “statistically significant improvements”, the “serum aspartate aminotransferase (AST) levels” value (hepatic fibrosis) was “statistically significant improvements” and the pathology scores (hepatic fibrosis) was “statistically significant improvements”. The pathology scores [1] was “statistically significant improvements”, the WBC [1] was “statistically significant improvements” and the HYP [1] was “statistically significant improvements”. For the same molecule, the “platelet toxicity (platelet count)” value (platelets) was “significantly improved”, the angiogenesis [2] was “statistically significant improvements” and the avascular zone [2] was “statistically significant improvements”.
